{"source": "patent US11576383B2", "about": "“Pesticide composition containing thidiazuron and polyglutamic acid” (JIANGSU HUIFENG BIO AGRICULTURE CO., LTD., priority 2017, dated 2023)", "type_in_all_cases": "in vivo", "key": {"indica": {"system": "indica", "assay": "Comprehensive assay of compounding thidiazuron and polyglutamic acid on growth regulation of indica (field, stem and leaf spraying)", "conditions": "50 a.i. mg/kg", "procedure": "(§1) 1. Comprehensive Assay Test of Compounding Thidiazuron and Polyglutamic Acid on Growth Regulation of Indica\n(§2) Thidiazuron and polyglutamic acid were diluted with acetone according to a certain concentration and were sprayed to stems and leaves of crops, and influence of concentrations on growth of crops is assayed in the field, including comprehensive evaluation on plant height, spike number, setting percentage, disease-resistant condition, yield condition and the like of the crops. Plant height control rate=(plant height of a clean water control group-processed plant height)/plant height of the clean water control group*100% Spike number increase ratio=(processed plant spike number-plant spike number of a clean water control group)/plant spike number of the clean water control group*100% Setting percentage=filled grain number per spike/total grain number per spike*100% Prevention effect=(disease index of a clean water control group-processed disease index)/disease index of the clean water control group*100% Yield per mu increase ratio=(processed yield per mu-yield per mu of a clean water control group)/yield per mu of the clean water control group*100%"}, "[1]": {"system": "banded sclerotial blight of indica", "assay": "Disease control of banded sclerotial blight in the indica comprehensive assay", "conditions": "50 a.i. mg/kg", "procedure": "as §1, §2"}, "[2]": {"system": "Southern corn leaf blight", "assay": "Prevention of Southern corn leaf blight in the maize field comprehensive test", "conditions": "40 a.i. mg/kg", "procedure": "as §2\n(§3) 1. Field Comprehensive Test of Mixing Thidiazuron and Polyglutamic Acid on Growth Regulation and Disease Resistance and Production Increase of Maize Crops\n(§4) Sorghum variety: Suyu 23.\nPesticide application stage: a big horn stage of maize and a blooming stage of maize in which diseases such as Southern corn leaf blight are prone to occur. […]"}, "maize": {"system": "maize", "assay": "Field comprehensive test of mixing thidiazuron and polyglutamic acid on growth regulation and production increase of maize", "conditions": "40 a.i. mg/kg", "procedure": "as §2, §3, §4\nPesticide application stage: a big horn stage of maize and a blooming stage of maize in which diseases such as Southern corn leaf blight are prone to occur.\nPesticide application number of times: 2 times, 6 days asan interval. The examples of the preparation of the present invention are sprayed for three repeated times, and the result is the mean value."}}}
{"smiles": "O=C(Nc1ccccc1)Nc1cnns1", "note": "[Thidiazuron]", "values": [{"measurement": "Spike Number of Single Plant", "setting": "indica", "result": 18.1, "unit": "grains"}, {"measurement": "Total Grain Number of Spike", "setting": "indica", "result": 145.7, "unit": "grains"}, {"measurement": "filled grain number per spike", "setting": "indica", "result": 132.2, "unit": "grains"}, {"measurement": "Setting Percentage", "setting": "indica; filled grain number per spike/total grain number per spike", "result": 90.7, "unit": "%"}, {"measurement": "Plant Height", "setting": "indica; stem and leaf spraying 2 times, 8 days interval, investigated at later grouting stage", "result": 121.2, "unit": "cm"}, {"measurement": "Plant Height Control Rate", "setting": "indica; vs clean water control group", "result": 5.0, "unit": "%"}, {"measurement": "Production Increase Ratio (yield per mu increase ratio)", "setting": "indica; vs clean water control group", "result": 5.5, "unit": "%"}, {"measurement": "Spike Number Increase Ratio", "setting": "indica; vs clean water control group", "result": 4.0, "unit": "%"}, {"measurement": "Output", "setting": "indica; yield per mu", "result": "537.5 667 M^2"}, {"measurement": "Prevention Effect", "setting": "[1]; banded sclerotial blight of indica, vs clean water control group", "result": 49.8, "unit": "%"}, {"measurement": "Disease Index of Banded Sclerotial Blight", "setting": "[1]; indica", "result": 14.8}, {"measurement": "Southern corn leaf blight", "setting": "[2]; disease index", "result": 14.74}, {"measurement": "Prevention Effect", "setting": "[2]; Southern corn leaf blight, vs clean water control group", "result": 51.11, "unit": "%"}, {"measurement": "Stem Diameter", "setting": "maize", "result": 2.50, "unit": "cm"}, {"measurement": "Thousand seed weight", "setting": "maize", "result": 249.0, "unit": "g"}, {"measurement": "Plant Height", "setting": "maize; applied 2 times, 6 days interval, mean of three repeats", "result": 129.0, "unit": "cm"}, {"measurement": "Control Rate (plant height)", "setting": "maize; vs clean water control group", "result": 5.4, "unit": "%"}, {"measurement": "Increase Ratio (output, unit yield per mu)", "setting": "maize; vs clean water control group", "result": 6.1, "unit": "%"}, {"measurement": "Increase Ratio (stem diameter)", "setting": "maize; vs clean water control group", "result": 5.4, "unit": "%"}, {"measurement": "Increase Ratio (thousand seed weight)", "setting": "maize; vs clean water control group", "result": 5.4, "unit": "%"}, {"measurement": "Output", "setting": "maize; yield per mu", "result": "637.9 667M^2"}]}
